This note sets out measurements from patent EP0330218B1, “Inhibitors of lysyl oxidase” (MERRELL DOW PHARMACEUTICALS INC., priority 1988, dated 1989).

Molecules are shown by their SMILES.

The assay addresses T1, Lysyl oxidase (Bos taurus, UniProt P33072).
T1 construct: The supernatant with lysyl oxidase activity is saved; from tissue; host or cells: bovine aorta (4 M urea extract)
T1 sequence (P33072 170-418): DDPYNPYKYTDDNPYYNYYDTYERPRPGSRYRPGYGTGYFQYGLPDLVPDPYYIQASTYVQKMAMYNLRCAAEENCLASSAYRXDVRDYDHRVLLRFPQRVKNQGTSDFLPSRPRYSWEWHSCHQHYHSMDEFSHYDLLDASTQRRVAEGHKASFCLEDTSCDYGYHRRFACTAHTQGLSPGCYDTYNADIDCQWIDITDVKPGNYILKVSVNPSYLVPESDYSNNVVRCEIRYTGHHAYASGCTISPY
Nature of the assay: Lysyl oxidase inhibition assay (fluorometric, cadaverine substrate, homovanillic acid/horseradish peroxidase). In kind it is biochemical. Conditions: lysyl oxidase preparation from bovine aorta, 10 minutes at 55°C, borate buffer pH = 8.2, read-out: IC₅₀. Here is the method: Lysyl oxidase preparation is obtained from bovine aorta by the procedures modified from M. A. Williams and H. M. Kagan, Anal. Biochem. 149, 430 - 437 (1985) and H. M. Kagan and K. A. Sullivan, Methods in Enzyml. 82, 637 - 650 (1982). The aorta is obtained fresh on the day of the enzyme preparation and is maintained at 4°C for the duration of its use in the experiments. The aorta is ground fine and is homogenized for 90 seconds in buffer (2.5 ml of a buffer consisting of 16 mM potassium phosphate and 1 mM phenylmethylsulfonyl fluoride/g of tissue) with 0.15 M NaCl added, then the mixture is centrifuged (20 minutes at 11,000 x g). The homogenization followed by centrifugation procedure is repeated with buffer plus 0.15 M NaCl, buffer alone, and buffer plus 1 M urea. After homogenization in 1 M urea, the mixture is stirred for 1 hour prior to centrifugation. The resulting pellet is homogenized in buffer plus 4 M urea, stirred for 18 hours, and centrifuged. The supernatant with lysyl oxidase activity is saved. The tissue is homogenized in buffer plus 4 M urea, stirred overnight, and centrifuged twice more. The supernatants with lysyl oxidase activity are saved.
The assay is adopted from that of P. C. Trackman, et al., Anal. Biochem. 113, 336 - 342 (1981). Each assay consists of two tubes, one that contains 0.2 mM β-aminopropionitrile, BAPN, from the start and one to which BAPN is added to quench the reaction. Lysyl oxidase preparation (0.150 ml), urea (0.300 ml, 4 M), buffer (0.930 ml, 200mM borate at pH = 8.2), homovanillic acid (0.020 ml of 50 mM solution), and horseradish peroxidase (0.010 ml of Sigma Type II at 5 mg/ml protein) are incubated for 2 minutes at 55°C in a test tube. Cadaverine (0.100 ml of 150 mM) and test compound, if any, is added and the incubation continued at 55°C for an additional 10 minutes. The test tubes containing this mixture are then cooled in a ice bath after adding BAPN to any tubes not containing it. The difference in fluorescence (excitation 315 nm and emission 425 nm) between corresponding tubes that received BAPN at 0 minutes and at 10 minutes is a measure of enzyme activity. A standard curve to determine the amount of cadaverine converted by lysyl oxidase is prepared as follows. Assay mixtures containing BAPN are made up as described and known amounts of hydrogen peroxide are added simultaneously with cadaverine and the fluorescence changes after 10 minutes reaction are determined.
Using this method the lysyl oxidase inhibiting activity expressed as IC₅₀ (inhibitory concentration), that is the concentration of test compound required to inhibit the enzyme activity by 50 per cent, was determined for various compounds of this invention.

Regarding `COc1ccc(/C(=C\F)CN)cc1OC` [(E)-2-(3,4-Dimethoxyphenyl)-3-fluoroallylamine], the IC50 was 100 nM. Consider `COc1ccc(CCC/C(=C\F)CN)cc1OC` [(E)-2-(3,4-Dimethoxyphenylpropyl)-3-fluoroallylamine], for which the IC50 was 0.1 nM. On to `NC/C(=C/F)CCc1ccc(F)cc1` [(E)-2-(4-Fluorophenethyl)-3-fluoroallylamine], for which the IC50 amounted to 0.1 nM. The same measure for `NC/C(=C\F)CSc1ccccc1` [(E)-2-(Thiophenoxymethyl)-3-fluoroallylamine]: 0.1 nM. For the molecule `CC(C)C/C(=C\Cl)CN` [(E)-2-Isobutyl-3-chloroallylamine], the IC50 amounted to 100 nM. Take `CC(C)C/C(=C\F)CN` [(E)-2-Isobutyl-3-fluoroallylamine]: the IC50 stood at 10 nM. The same measure for `NC/C(=C/Cl)CCc1ccccc1` [(E)-2-Phenethyl-3-chloroallylamine]: 10 nM.

As to `NC/C(=C/Cl)c1ccccc1` [(E)-2-Phenyl-3-chloroallylamine], the IC50 was found to be 100 nM. For `NC/C(=C/F)c1ccccc1` [(E)-2-Phenyl-3-fluoroallylamine], the IC50 turned out to be 1 nM. The same measure for `CCCCCCCCCCC/C(=C\F)CN` [(E)-2-Undecyl-3-fluoroallylamine]: 100 nM; for `CCNC/C(=C/F)c1ccc(OC)c(OC)c1` [(E)-N-Ethyl-2-(3,4-dimethoxyphenyl)-3-fluoroallylamine]: 1000 nM; for `NC/C(=C/F)c1cccs1` [(Z)-2-(2-Thienyl)-3-fluoroallylamine]: 1 nM. With `NC/C(=C/F)COc1ccc(Cl)c(Cl)c1` [(Z)-2-(3,4-Dichlorophenoxymethyl)-3-fluoroallylamine] the figure was 1 nM.
